Laboratory results published in publication PMC5218480 (PLoS ONE, 2017).

Tested on: MV-4-11 cells
Test: Gene expression microarray analysis (Affymetrix PrimeView) and GSEA
Type: cell-based, human
Set-up: RFU PODN (11730768_x_at) / Fold change /veh PODN (11730768_x_at) / RFU LINC00158 (11744669_a_at) / Fold change /veh LINC00158 (11744669_a_at) / RFU DUSP10 (11751237_a_at) / Fold change /veh DUSP10 (11751237_a_at) / RFU ID3 (11757404_x_at) / Fold change /veh ID3 (11757404_x_at) / RFU PLEKHG5 (11737974_s_at) / Fold change /veh PLEKHG5 (11737974_s_at) / RFU LRRC4B (11730491_at) / Fold change /veh LRRC4B (11730491_at) / RFU GIMAP4 (11747438_a_at) / Fold change /veh GIMAP4 (11747438_a_at) / RFU KRT8 (11758183_x_at) / Fold change /veh KRT8 (11758183_x_at) / RFU CNN1 (11734310_a_at) / Fold change /veh CNN1 (11734310_a_at) / RFU VPS37D (11726825_at) / Fold change /veh VPS37D (11726825_at) / RFU C10orf10 (11716522_x_at) / Fold change /veh C10orf10 (11716522_x_at) / RFU KIR2DL2 /// KIR2DL4 /// KIR2DL5A /// KIR2DL5B /// KIR2DS1 /// KIR2DS2 /// KIR2DS3 /// KIR2DS4 /// KIR3DL3 /// KIR3DL3 /// KIR3DS1 (11738374_at) / Fold change /veh KIR2DL2 /// KIR2DL4 /// KIR2DL5A /// KIR2DL5B /// KIR2DS1 /// KIR2DS2 /// KIR2DS3 /// KIR2DS4 /// KIR3DL3 /// KIR3DL3 /// KIR3DS1 (11738374_at) / RFU C1QL1 (11718748_at) / Fold change /veh C1QL1 (11718748_at) / RFU TMPRSS4 (11747572_a_at) / Fold change /veh TMPRSS4 (11747572_a_at) / RFU HAMP (11756126_x_at) / Fold change /veh HAMP (11756126_x_at) / RFU RNFT2 (11725882_a_at) / Fold change /veh RNFT2 (11725882_a_at) / RFU NR4A2 (11747474_a_at) / Fold change /veh NR4A2 (11747474_a_at) / RFU ABCC12 (11746883_a_at) / Fold change /veh ABCC12 (11746883_a_at) / RFU TMEM136 (11760407_x_at) / Fold change /veh TMEM136 (11760407_x_at) / RFU CLDN22 /// WWC2 (11732394_at) / Fold change /veh CLDN22 /// WWC2 (11732394_at) / RFU HLA-DPB1 (11760878_x_at) / Fold change /veh HLA-DPB1 (11760878_x_at) / RFU SPINT1 (11716480_a_at) / Fold change /veh SPINT1 (11716480_a_at) / RFU GAP43 (11754022_s_at) / Fold change /veh GAP43 (11754022_s_at) / RFU A4GNT (11735810_at) / Fold change /veh A4GNT (11735810_at) / RFU PRB3 (11715151_x_at) / Fold change /veh PRB3 (11715151_x_at) / RFU TUBB4B (11761932_at) / Fold change /veh TUBB4B (11761932_at) / RFU CAPN14 (11732068_a_at) / Fold change /veh CAPN14 (11732068_a_at) / RFU TMCC2 (11721928_a_at) / Fold change /veh TMCC2 (11721928_a_at) / RFU IRGQ (11745062_a_at) / Fold change /veh IRGQ (11745062_a_at) / RFU FAM174B (11720279_a_at) / Fold change /veh FAM174B (11720279_a_at) / RFU TMPRSS4 (11748680_a_at) / Fold change /veh TMPRSS4 (11748680_a_at) / RFU FAM212B (11763350_a_at) / Fold change /veh FAM212B (11763350_a_at) / RFU PLEKHG5 (11743358_a_at) / Fold change /veh PLEKHG5 (11743358_a_at) / RFU ZSCAN30 (11745921_a_at) / Fold change /veh ZSCAN30 (11745921_a_at) / RFU CMKLR1 (11741424_a_at) / Fold change /veh CMKLR1 (11741424_a_at) / RFU LOC101060620 /// MAPK8IP1 (11723275_at) / Fold change /veh LOC101060620 /// MAPK8IP1 (11723275_at) / RFU SPTSSB (11747773_x_at) / Fold change /veh SPTSSB (11747773_x_at) / RFU PRSS12 (11739890_at) / Fold change /veh PRSS12 (11739890_at) / RFU BIN1 (11741810_x_at) / Fold change /veh BIN1 (11741810_x_at) / RFU WNT11 (11732464_a_at) / Fold change /veh WNT11 (11732464_a_at) / RFU C10orf10 (11716521_a_at) / Fold change /veh C10orf10 (11716521_a_at) / RFU C5orf56 (11738089_at) / Fold change /veh C5orf56 (11738089_at) / RFU CYB561 (11721691_x_at) / Fold change /veh CYB561 (11721691_x_at) / RFU ANKRD19P (11752326_a_at) / Fold change /veh ANKRD19P (11752326_a_at) / RFU OR2T12 /// OR2T33 /// OR2T8 (11738714_s_at) / Fold change /veh OR2T12 /// OR2T33 /// OR2T8 (11738714_s_at) / RFU VCAN (11748164_a_at) / Fold change /veh VCAN (11748164_a_at) / RFU JSRP1 (11732532_at) / Fold change /veh JSRP1 (11732532_at) / RFU KRTAP10-11 (11738290_x_at) / Fold change /veh KRTAP10-11 (11738290_x_at) / RFU MYO3A (11730013_a_at) / Fold change /veh MYO3A (11730013_a_at) / RFU EBF3 (11725865_a_at) / Fold change /veh EBF3 (11725865_a_at) / RFU CAMK2N1 (11719241_x_at) / Fold change /veh CAMK2N1 (11719241_x_at) / RFU C5orf56 (11738088_a_at) / Fold change /veh C5orf56 (11738088_a_at) / RFU OLFML3 (11715873_a_at) / Fold change /veh OLFML3 (11715873_a_at) / RFU LOC100653217 /// NTM (11731650_a_at) / Fold change /veh LOC100653217 /// NTM (11731650_a_at) / RFU MAPK11 (11762145_a_at) / Fold change /veh MAPK11 (11762145_a_at) / RFU FIZ1 (11724087_x_at) / Fold change /veh FIZ1 (11724087_x_at) / RFU OASL (11726364_x_at) / Fold change /veh OASL (11726364_x_at) / RFU SOX15 (11748057_x_at) / Fold change /veh SOX15 (11748057_x_at) / RFU CD79A (11719716_a_at) / Fold change /veh CD79A (11719716_a_at) / RFU HIST1H1D (11736915_at) / Fold change /veh HIST1H1D (11736915_at) / RFU CASKIN2 (11723855_a_at) / Fold change /veh CASKIN2 (11723855_a_at) / RFU LOC730098 (11760151_x_at) / Fold change /veh LOC730098 (11760151_x_at) / RFU OR4N2 (11742367_at) / Fold change /veh OR4N2 (11742367_at) / RFU PRRT2 (11749266_a_at) / Fold change /veh PRRT2 (11749266_a_at) / RFU SNX32 (11753110_a_at) / Fold change /veh SNX32 (11753110_a_at) / RFU CDHR5 (11726645_a_at) / Fold change /veh CDHR5 (11726645_a_at) / RFU RCAN1 (11760418_a_at) / Fold change /veh RCAN1 (11760418_a_at) / RFU FAM167A (11723789_a_at) / Fold change /veh FAM167A (11723789_a_at) / RFU FAM26E (11764081_at) / Fold change /veh FAM26E (11764081_at) / RFU ISYNA1 (11749810_s_at) / Fold change /veh ISYNA1 (11749810_s_at) / RFU ACY1 (11761880_at) / Fold change /veh ACY1 (11761880_at) / RFU 11764098_at / Fold change /veh 11764098_at / RFU SAMD14 (11745864_x_at) / Fold change /veh SAMD14 (11745864_x_at) / RFU NPB (11741838_a_at) / Fold change /veh NPB (11741838_a_at) / RFU TMPRSS6 (11731388_a_at) / Fold change /veh TMPRSS6 (11731388_a_at) / RFU KRTAP10-2 (11738614_at) / Fold change /veh KRTAP10-2 (11738614_at) / RFU ARHGAP8 /// PRR5-ARHGAP8 (11727945_x_at) / Fold change /veh ARHGAP8 /// PRR5-ARHGAP8 (11727945_x_at) / RFU KRTAP5-7 /// NADSYN1 (11734609_at) / Fold change /veh KRTAP5-7 /// NADSYN1 (11734609_at) / RFU RASL12 (11751679_a_at) / Fold change /veh RASL12 (11751679_a_at) / RFU CDKN2B (11736163_a_at) / Fold change /veh CDKN2B (11736163_a_at) / RFU PRF1 (11729649_at) / Fold change /veh PRF1 (11729649_at) / RFU, ZNF638 /// ZNF638-IT1 / Fold change vs veh, ZNF638 /// ZNF638-IT1 / RFU, PANK3 / Fold change vs veh, PANK3 / RFU, SH3YL1 / Fold change vs veh, SH3YL1 / RFU, ZEB2 / Fold change vs veh, ZEB2 / RFU, NRIP1 / Fold change vs veh, NRIP1 / RFU, PTTG1IP / Fold change vs veh, PTTG1IP / RFU, CAPN2 / Fold change vs veh, CAPN2 / RFU, MED14 / Fold change vs veh, MED14 / RFU, SNORA58 / Fold change vs veh, SNORA58 / RFU, C1orf63 / Fold change vs veh, C1orf63 / RFU, LRRFIP1 / Fold change vs veh, LRRFIP1 / RFU, NDUFAF7 / Fold change vs veh, NDUFAF7 / RFU, SLC12A2 / Fold change vs veh, SLC12A2 / RFU, IBTK / Fold change vs veh, IBTK / RFU, ESF1 / Fold change vs veh, ESF1 / Fold change vs veh, TMEM50B / RFU, TAOK1 / Fold change vs veh, TAOK1 / RFU, ACBD3 / Fold change vs veh, ACBD3 / RFU, TMA16 / Fold change vs veh, TMA16 / RFU, RWDD3 / Fold change vs veh, RWDD3 / RFU, BCAT1 / Fold change vs veh, BCAT1 / RFU, EDEM3 / Fold change vs veh, EDEM3 / RFU, TMEM33 / Fold change vs veh, TMEM33 / RFU, WDR75 / Fold change vs veh, WDR75 / RFU, AHCTF1 / Fold change vs veh, AHCTF1 / RFU, TFRC / Fold change vs veh, TFRC / RFU, ZDHHC17 / Fold change vs veh, ZDHHC17 / RFU, NOM1 / Fold change vs veh, NOM1 / RFU, ARL8B / Fold change vs veh, ARL8B / RFU, ZBTB11 / Fold change vs veh, ZBTB11 / RFU, TAMM41 / Fold change vs veh, TAMM41 / RFU, KIAA1704 /// LOC100996395 / Fold change vs veh, KIAA1704 /// LOC100996395 / RFU, ING1 / Fold change vs veh, ING1 / RFU, TRMT61B / Fold change vs veh, TRMT61B / RFU, FUBP3 / Fold change vs veh, FUBP3 / RFU, TP53 / Fold change vs veh, TP53 / RFU, TNKS2 / Fold change vs veh, TNKS2 / RFU, ZFP14 / Fold change vs veh, ZFP14 / RFU, ACTR2 / Fold change vs veh, ACTR2 / RFU, PPP3R1 / Fold change vs veh, PPP3R1 / RFU, PIK3R1 / Fold change vs veh, PIK3R1 / RFU, HNRNPA1 / Fold change vs veh, HNRNPA1 / RFU, RNF170 / Fold change vs veh, RNF170 / RFU, ZNF28 / Fold change vs veh, ZNF28 / RFU, RNGTT / Fold change vs veh, RNGTT / RFU, OGT / Fold change vs veh, OGT / RFU, BRD1 / Fold change vs veh, BRD1 / RFU, MARS / Fold change vs veh, MARS / RFU, ZNF655 / Fold change vs veh, ZNF655 / RFU, FAHD1 / Fold change vs veh, FAHD1 / RFU, BDP1 / Fold change vs veh, BDP1 / RFU, LRRCC1 / Fold change vs veh, LRRCC1 / RFU, ARID1A / Fold change vs veh, ARID1A / RFU, ZNF146 / Fold change vs veh, ZNF146 / RFU, ZNF330 / Fold change vs veh, ZNF330 / RFU, GPN3 / Fold change vs veh, GPN3 / RFU, C9orf123 / Fold change vs veh, C9orf123 / RFU, N4BP2L2 / Fold change vs veh, N4BP2L2 / RFU, ARFIP1 / Fold change vs veh, ARFIP1 / RFU, FAM179B / Fold change vs veh, FAM179B / RFU, BCL10 / Fold change vs veh, BCL10 / RFU, UHRF1BP1L / Fold change vs veh, UHRF1BP1L / RFU, BET1 / Fold change vs veh, BET1 / RFU, CNOT2 / Fold change vs veh, CNOT2 / RFU, ZNF268 / Fold change vs veh, ZNF268 / Fold change vs veh, ZNF507 / RFU, DGCR2 / Fold change vs veh, DGCR2 / RFU, WDSUB1 / Fold change vs veh, WDSUB1 / Fold change vs veh, HSP90B1 /// MIR3652 / RFU, ADSS / Fold change vs veh, ADSS / RFU, GK / Fold change vs veh, GK / RFU, ZNF148 / Fold change vs veh, ZNF148 / RFU, TAF9 / Fold change vs veh, TAF9 / RFU, SLC1A5 / Fold change vs veh, SLC1A5 / RFU, SLMO2 / Fold change vs veh, SLMO2 / RFU, ABCC4 / Fold change vs veh, ABCC4 / RFU, LOC101060439 /// RAP1B / Fold change vs veh, LOC101060439 /// RAP1B / RFU, RFX7 / Fold change vs veh, RFX7 / RFU, GTPBP10 / Fold change vs veh, GTPBP10 / RFU, CNEP1R1 / Fold change vs veh, CNEP1R1 / RFU, BIVM-ERCC5 /// ERCC5 / Fold change vs veh, BIVM-ERCC5 /// ERCC5 / RFU, ILF3 / Fold change vs veh, ILF3 / RFU 11762660_at / Fold change /veh 11762660_at / RFU VCAN (11757783_s_at) / Fold change /veh VCAN (11757783_s_at) / RFU DDX43 (11728927_at) / Fold change /veh DDX43 (11728927_at) / RFU KRT8 (11758188_x_at) / Fold change /veh KRT8 (11758188_x_at) / RFU NKD1 (11759106_at) / Fold change /veh NKD1 (11759106_at) / RFU SRD5A1 (11742802_a_at) / Fold change /veh SRD5A1 (11742802_a_at) / RFU TPSAB1 /// TPSB2 (11721975_s_at) / Fold change /veh TPSAB1 /// TPSB2 (11721975_s_at) / RFU GSTM3 (11746129_a_at) / Fold change /veh GSTM3 (11746129_a_at) / RFU IL23R (11737362_x_at) / Fold change /veh IL23R (11737362_x_at) / RFU TMEM51 (11727254_a_at) / Fold change /veh TMEM51 (11727254_a_at) / RFU PIWIL2 (11732686_x_at) / Fold change /veh PIWIL2 (11732686_x_at) / RFU ORM1 (11744905_x_at) / Fold change /veh ORM1 (11744905_x_at) / RFU CCDC152 (11743942_at) / Fold change /veh CCDC152 (11743942_at) / RFU ECM1 (11717891_a_at) / Fold change /veh ECM1 (11717891_a_at) / RFU IL23R (11748794_a_at) / Fold change /veh IL23R (11748794_a_at) / RFU TNFAIP8L3 (11732012_x_at) / Fold change /veh TNFAIP8L3 (11732012_x_at) / RFU MBOAT4 (11741988_at) / Fold change /veh MBOAT4 (11741988_at) / RFU 11764193_at / Fold change /veh 11764193_at / RFU TMEM53 (11763286_at) / Fold change /veh TMEM53 (11763286_at) / RFU MAGEB2 (11727129_at) / Fold change /veh MAGEB2 (11727129_at) / RFU TMEM200A (11744735_a_at) / Fold change /veh TMEM200A (11744735_a_at) / RFU CCDC152 (11751479_a_at) / Fold change /veh CCDC152 (11751479_a_at) / RFU FAM211A (11726209_a_at) / Fold change /veh FAM211A (11726209_a_at) / RFU RGS16 (11746705_a_at) / Fold change /veh RGS16 (11746705_a_at) / RFU VCAN (11755009_s_at) / Fold change /veh VCAN (11755009_s_at) / RFU RHOB (11743442_s_at) / Fold change /veh RHOB (11743442_s_at) / RFU RGS16 (11720943_a_at) / Fold change /veh RGS16 (11720943_a_at) / RFU RGS16 (11720944_at) / Fold change /veh RGS16 (11720944_at) / RFU, VPS4B / Fold change vs veh, VPS4B / RFU, CREB1 / Fold change vs veh, CREB1 / RFU, DNAJC13 / Fold change vs veh, DNAJC13 / RFU, GNAQ / Fold change vs veh, GNAQ / RFU, CDK5R1 / Fold change vs veh, CDK5R1 / RFU, ZRANB3 / Fold change vs veh, ZRANB3 / RFU, CUL4A / Fold change vs veh, CUL4A / RFU, CCNY / Fold change vs veh, CCNY / RFU, UFL1 / Fold change vs veh, UFL1 / RFU, COG3 / Fold change vs veh, COG3 / RFU, DIAPH2 / Fold change vs veh, DIAPH2 / RFU, SKA2 / Fold change vs veh, SKA2 / RFU, AFF3 / Fold change vs veh, AFF3 / RFU, LMF1 / Fold change vs veh, LMF1 / RFU, IPO11 / Fold change vs veh, IPO11 / RFU, DFFB / Fold change vs veh, DFFB / RFU, FOXP1 / Fold change vs veh, FOXP1 / RFU, CARD8 / Fold change vs veh, CARD8 / RFU, STRN3 / Fold change vs veh, STRN3 / RFU, ADK / Fold change vs veh, ADK / RFU, RASSF2 / Fold change vs veh, RASSF2 / RFU, WIPF1 / Fold change vs veh, WIPF1 / RFU, LARP1B / Fold change vs veh, LARP1B / RFU, RASA1 / Fold change vs veh, RASA1 / RFU, RB1 / Fold change vs veh, RB1 / RFU, PPFIA1 / Fold change vs veh, PPFIA1 / RFU, MAT2A / Fold change vs veh, MAT2A / RFU, CCT5 / Fold change vs veh, CCT5 / RFU, WDR92 / Fold change vs veh, WDR92 / RFU, CUX1 / Fold change vs veh, CUX1 / RFU, TTC7A / Fold change vs veh, TTC7A / RFU, TMEM135 / Fold change vs veh, TMEM135 / RFU, DEPTOR / Fold change vs veh, DEPTOR / RFU, CPM / Fold change vs veh, CPM / RFU, DNAJB6 / Fold change vs veh, DNAJB6 / RFU, CACNA2D3 / Fold change vs veh, CACNA2D3 / RFU, DTX4 / Fold change vs veh, DTX4 / RFU, TFCP2 / Fold change vs veh, TFCP2 / RFU, GMCL1 /// GMCL1P1 / Fold change vs veh, GMCL1 /// GMCL1P1 / RFU, AEBP2 / Fold change vs veh, AEBP2 / RFU, SNHG1 /// SNORD22 /// SNORD25 /// SNORD26 /// SNORD27 /// SNORD28 /// SNORD29 /// SNORD31 / Fold change vs veh, SNHG1 /// SNORD22 /// SNORD25 /// SNORD26 /// SNORD27 /// SNORD28 /// SNORD29 /// SNORD31 / Fold change (Aza/veh), C12orf56 (ProbeSet 11735607_a_at) / Fold change (ACY-1035/veh), C12orf56 (ProbeSet 11735607_a_at) / Fold change (Aza/veh), FGFR1OP (ProbeSet 11751329_s_at) / Fold change (ACY-1035/veh), FGFR1OP (ProbeSet 11751329_s_at) / Fold change (Aza/veh), VPS36 (ProbeSet 11739960_a_at) / Fold change (ACY-1035/veh), VPS36 (ProbeSet 11739960_a_at) / RFU SYPL1 (11715823_x_at) / Fold change /veh SYPL1 (11715823_x_at) / RFU IGFBP7 (11715501_s_at) / Fold change /veh IGFBP7 (11715501_s_at) / RFU REEP3 (11722064_at) / Fold change /veh REEP3 (11722064_at) / RFU IGLL1 (11728026_x_at) / Fold change /veh IGLL1 (11728026_x_at): dose or concentration left out as unconfirmed
Conditions: ProbeSet 11743567_s_at; LIST B

Nc1ncn([C@@H]2O[C@H](CO)[C@@H](O)[C@H]2O)c(=O)n1 [azacitidine]
Fold change vs veh, ACBD3: 1.04
